Source: patent US11839207B1, “Essential oil-containing formulation for insecticide use, fertilizer application, and/or fertilizer coating” (priority 2019, dated 2023)

Columns and labels:
Type in all cases: in vivo
[1] = test system: Culex; assay: Arm-in-cage (AIC) repellency test, Culex; details: 1 ml per 600 cm^2 on forearm
Protocol: (§1) Additional testing was conducted comparing the inventive formulation to DEET for the purposes of comparing insect repellency. In many insect repellency studies, there is often a lack of side-by-side comparisons for two or more insect repellents. The study conducted in connection with the inventive formulation sought to address this problem by directly comparing the two insect repellents based on the same active contents, i.e., 15% by weight. The study was conducted using both field testing and laboratory conditions. The tested formulation included ethanolic solutions of 15% DEET (m/m) and 15% of the inventive formulation, and the composition tested corresponded to the target composition described above. […] Under laboratory conditions, the efficacy of mosquito repellents is typically evaluated in the so-called “arm-in-cage” (AIC) test. […] In the field, similar endpoints may be determined on the basis of mosquitoes landing or biting on an exposed skin area, usually the lower leg, while the mosquitoes are collected by aspiration allowing for the identification of the mosquito species in a laboratory. […] In the AIC test the protection time of a repellent is assessed by exposing a treated forearm to hungry mosquitoes at regular intervals (grown from larvae and not fed for 12 hours before the test). The cages measured 16″×16″×14″ and were made of clear glass with an opening on the front side. […]

[2] = test system: Aedes; assay: Arm-in-cage (AIC) repellency test, Aedes; details: 1 ml per 600 cm^2 on forearm
Protocol: as §1

[3] = test system: Anopheles; assay: Arm-in-cage (AIC) repellency test, Anopheles; details: 1 ml per 600 cm^2 on forearm
Protocol: as §1

[4] = test system: mosquitoes; assay: Field repellency test, human landing catch (HLC) method; details: relative protection percentages shown in the FIGURE
Protocol: Additional testing was conducted comparing the inventive formulation to DEET for the purposes of comparing insect repellency. In many insect repellency studies, there is often a lack of side-by-side comparisons for two or more insect repellents. The study conducted in connection with the inventive formulation sought to address this problem by directly comparing the two insect repellents based on the same active contents, i.e., 15% by weight. The study was conducted using both field testing and laboratory conditions. […] Under laboratory conditions, the efficacy of mosquito repellents is typically evaluated in the so-called “arm-in-cage” (AIC) test. […] In the field, similar endpoints may be determined on the basis of mosquitoes landing or biting on an exposed skin area, usually the lower leg, while the mosquitoes are collected by aspiration allowing for the identification of the mosquito species in a laboratory. […] The application volume was estimated on the basis of the surface area, calculated as the average of the circumferences just below the knee, the calf and the ankle, multiplied by the length of the lower leg, measured from below the knee to the ankle. […] Raw data was recorded on paper forms. […] The endpoint measured in the experiments was the number of mosquitoes landing on the bare skin during each exposure period. […]

CCN(CC)C(=O)c1cccc(C)c1 [15% DEET, DEET]
median CPT (complete protection time) in the AIC tests [1]: 2 h
median CPT (complete protection time) in the AIC tests [2]: 0.5 h
median CPT (complete protection time) in the AIC tests [3]: 2 h
efficacy in comparative study between AIC test and HLC method in the field [4]: comparable efficacy
